Measurements: ChEMBL document CHEMBL1201862, “PubChem BioAssay data set” (2004)
Values belong to the molecule of their own block, whether it stands above or below them. Activity calls are given as the source filed them.

Assays:
Protein Wnt-3a = Protein Wnt-3a (Mus musculus, UniProt P27467); experiment: antagonism of Wnt3a pathway luciferase reporter – Wnt-LIGHT cells, luminescence, selectivity assay for Gli-SUFU antagonist project, dose response (AID 651570); type: functional; conditions: read-out: IC50_Mean;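 also: Wnt-LIGHT reporter cells stimulated with conditioned medium from Wnt3a-producing cells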
Sequence of Protein Wnt-3a (P27467 whole entry): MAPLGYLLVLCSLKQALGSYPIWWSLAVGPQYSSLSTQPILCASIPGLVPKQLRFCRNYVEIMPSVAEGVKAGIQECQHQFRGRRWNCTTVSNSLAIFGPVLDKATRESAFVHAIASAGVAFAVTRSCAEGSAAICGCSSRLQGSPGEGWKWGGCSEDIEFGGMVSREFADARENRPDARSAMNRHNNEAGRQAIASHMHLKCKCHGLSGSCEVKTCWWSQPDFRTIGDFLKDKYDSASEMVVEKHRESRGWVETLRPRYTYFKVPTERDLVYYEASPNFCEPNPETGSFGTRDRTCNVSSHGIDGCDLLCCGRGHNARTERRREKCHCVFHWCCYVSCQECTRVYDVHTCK

[1] = nonselective StAR promoter luciferase inhibitors – cell-based, luminescence, luciferase reporter, counter-screen for LRH-1 inverse agonist project, dose response (AID 651969); type: functional
[2] = target: T1, Apoptotic protease-activating factor 1 (Homo sapiens, UniProt O14727); experiment: SAR analysis of small molecule Activators of Apaf-1 in a Fluorescent assay.; type: functional; conditions: read-out: EC50_Mean;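 also: caspase-3 cleavage of fluorogenic Rh110 DEVD substrate downstream of apoptosome activation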
T1 sequence (O14727 whole entry): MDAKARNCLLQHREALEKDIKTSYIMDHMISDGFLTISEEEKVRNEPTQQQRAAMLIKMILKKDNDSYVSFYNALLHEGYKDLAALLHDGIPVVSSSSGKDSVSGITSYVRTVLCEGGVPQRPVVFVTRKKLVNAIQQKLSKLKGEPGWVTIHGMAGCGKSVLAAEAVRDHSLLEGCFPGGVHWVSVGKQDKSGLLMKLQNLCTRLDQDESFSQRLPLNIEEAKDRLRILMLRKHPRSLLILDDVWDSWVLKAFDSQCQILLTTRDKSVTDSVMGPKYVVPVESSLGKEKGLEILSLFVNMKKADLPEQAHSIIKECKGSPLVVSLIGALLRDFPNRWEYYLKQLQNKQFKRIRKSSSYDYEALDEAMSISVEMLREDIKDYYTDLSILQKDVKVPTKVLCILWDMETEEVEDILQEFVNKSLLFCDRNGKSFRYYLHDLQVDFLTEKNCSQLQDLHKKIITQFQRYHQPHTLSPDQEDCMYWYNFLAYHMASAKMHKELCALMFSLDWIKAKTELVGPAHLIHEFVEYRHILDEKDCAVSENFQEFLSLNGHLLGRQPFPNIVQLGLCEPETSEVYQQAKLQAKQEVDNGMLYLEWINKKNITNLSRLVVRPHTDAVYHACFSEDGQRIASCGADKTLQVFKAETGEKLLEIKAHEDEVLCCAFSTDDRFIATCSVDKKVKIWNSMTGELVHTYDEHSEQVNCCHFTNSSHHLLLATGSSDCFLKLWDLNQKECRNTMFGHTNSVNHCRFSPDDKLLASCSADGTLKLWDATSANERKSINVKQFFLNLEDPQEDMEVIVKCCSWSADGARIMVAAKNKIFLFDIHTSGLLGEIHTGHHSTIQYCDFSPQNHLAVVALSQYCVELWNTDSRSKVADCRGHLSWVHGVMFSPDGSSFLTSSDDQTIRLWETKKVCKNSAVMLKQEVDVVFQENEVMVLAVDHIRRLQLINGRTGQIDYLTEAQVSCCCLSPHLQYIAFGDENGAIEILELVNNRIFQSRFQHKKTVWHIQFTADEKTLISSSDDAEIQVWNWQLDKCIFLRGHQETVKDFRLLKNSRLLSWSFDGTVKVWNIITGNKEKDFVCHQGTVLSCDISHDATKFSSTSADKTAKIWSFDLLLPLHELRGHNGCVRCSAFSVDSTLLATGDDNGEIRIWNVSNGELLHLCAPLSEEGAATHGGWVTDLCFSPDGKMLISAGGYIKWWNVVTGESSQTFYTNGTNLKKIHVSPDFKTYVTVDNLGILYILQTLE

[3] = target: T2, Short transient receptor potential channel 4 (Mus musculus, UniProt Q9QUQ5); experiment: block of DAMGO-driven TRPC4 calcium entry – cell-based, HEK293 TRPC4/mu-opioid, Fluo-4 calcium, dose response (AID 434942); type: functional;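 also: potency of inhibitors blocking the TRPC4 calcium response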
T2 sequence (Q9QUQ5 whole entry): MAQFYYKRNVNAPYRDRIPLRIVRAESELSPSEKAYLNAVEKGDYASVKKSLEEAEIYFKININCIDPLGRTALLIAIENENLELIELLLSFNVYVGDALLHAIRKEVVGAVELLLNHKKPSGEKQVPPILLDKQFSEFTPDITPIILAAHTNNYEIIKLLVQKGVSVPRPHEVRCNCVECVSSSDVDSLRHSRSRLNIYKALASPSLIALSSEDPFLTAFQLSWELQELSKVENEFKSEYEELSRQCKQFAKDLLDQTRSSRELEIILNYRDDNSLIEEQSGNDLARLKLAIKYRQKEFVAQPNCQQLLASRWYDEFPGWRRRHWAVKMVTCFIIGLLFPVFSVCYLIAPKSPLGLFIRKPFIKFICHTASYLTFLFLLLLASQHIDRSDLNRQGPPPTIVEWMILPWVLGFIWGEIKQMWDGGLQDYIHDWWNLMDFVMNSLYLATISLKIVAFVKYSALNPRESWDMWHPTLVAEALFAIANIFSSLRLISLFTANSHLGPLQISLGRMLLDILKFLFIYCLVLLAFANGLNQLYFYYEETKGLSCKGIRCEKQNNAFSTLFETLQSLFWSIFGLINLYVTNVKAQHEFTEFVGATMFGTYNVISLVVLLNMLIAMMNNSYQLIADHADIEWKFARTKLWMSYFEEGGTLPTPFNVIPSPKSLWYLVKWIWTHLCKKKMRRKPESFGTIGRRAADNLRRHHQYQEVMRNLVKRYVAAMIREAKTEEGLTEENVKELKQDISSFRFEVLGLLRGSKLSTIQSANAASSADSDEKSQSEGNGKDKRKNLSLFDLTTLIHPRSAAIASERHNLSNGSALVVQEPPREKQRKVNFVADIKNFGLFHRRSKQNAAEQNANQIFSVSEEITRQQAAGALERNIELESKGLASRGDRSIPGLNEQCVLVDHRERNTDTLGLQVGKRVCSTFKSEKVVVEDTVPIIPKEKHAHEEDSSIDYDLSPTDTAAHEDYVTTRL

[4] = target: T3, Corticotropin-releasing factor receptor 2/Corticotropin-releasing factor-binding protein (Homo sapiens, UniProt P24387+Q13324); experiment: Dose Response confirmation of uHTS hits for small molecule antagonists of the CRF-binding protein and CRF-R2 receptor complex.; type: functional; conditions: read-out: IC50_Mean
T3 sequence (Q13324 whole entry): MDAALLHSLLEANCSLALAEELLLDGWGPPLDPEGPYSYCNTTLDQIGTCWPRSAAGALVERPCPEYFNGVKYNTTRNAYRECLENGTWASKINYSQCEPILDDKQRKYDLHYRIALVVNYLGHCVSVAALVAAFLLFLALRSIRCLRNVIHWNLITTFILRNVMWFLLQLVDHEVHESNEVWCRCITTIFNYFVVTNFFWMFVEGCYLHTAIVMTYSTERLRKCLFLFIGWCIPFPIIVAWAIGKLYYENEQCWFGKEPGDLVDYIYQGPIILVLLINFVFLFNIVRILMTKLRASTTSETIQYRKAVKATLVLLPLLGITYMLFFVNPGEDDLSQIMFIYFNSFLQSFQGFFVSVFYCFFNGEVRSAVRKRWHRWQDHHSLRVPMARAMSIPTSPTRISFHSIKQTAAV
T3 sequence (P24387 whole entry): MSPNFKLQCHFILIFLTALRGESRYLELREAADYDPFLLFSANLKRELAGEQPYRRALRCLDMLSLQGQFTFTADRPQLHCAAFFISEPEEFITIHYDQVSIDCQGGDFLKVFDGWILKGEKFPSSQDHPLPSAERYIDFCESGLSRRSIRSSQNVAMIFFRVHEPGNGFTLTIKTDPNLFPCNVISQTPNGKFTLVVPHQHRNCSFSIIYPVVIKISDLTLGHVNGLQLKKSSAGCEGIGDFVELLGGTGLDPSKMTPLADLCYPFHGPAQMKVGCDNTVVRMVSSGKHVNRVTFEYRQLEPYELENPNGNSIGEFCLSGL

[5] = target: T3, Corticotropin-releasing factor receptor 2/Corticotropin-releasing factor-binding protein; experiment: activators of CRF receptor 2 with binding protein – uHTS hits, confirmation (AID 602473); type: functional; conditions: read-out: EC50_Mean
[6] = blockers of CRF-binding protein–CRF-R2 complex – cell-based, uHTS hits, 384-well, dose response (AID 651639); type: functional, Homo sapiens; conditions: read-out: IC50_Mean
[7] = NIH-3T3 fibroblast cytotoxicity, dose response, cytotoxicity control, cell-based, fluorescence, Alamar Blue, secondary assay (AID 2327); type: functional;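 also: NIH-3T3 mouse fibroblasts cultured with fluconazole at 8 µg/mL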
[8] = fluconazole-exposed Candida albicans growth modulators – fluorescence, retest, confirmation (AID 2467); type: functional, cell-based
[9] = target: T4, Microphthalmia-associated transcription factor (Homo sapiens, UniProt O75030); experiment: reducers of TRPM1 reporter luminescence, concentration series – cell-based, SK-MEL-5, cherry-picked, set 3, MITF inhibitor project, dose response (AID 493073); type: functional;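 also: SK-MEL-5 melanoma cells with luciferase driven by the MITF target TRPM1 promoter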
T4 sequence (O75030 whole entry): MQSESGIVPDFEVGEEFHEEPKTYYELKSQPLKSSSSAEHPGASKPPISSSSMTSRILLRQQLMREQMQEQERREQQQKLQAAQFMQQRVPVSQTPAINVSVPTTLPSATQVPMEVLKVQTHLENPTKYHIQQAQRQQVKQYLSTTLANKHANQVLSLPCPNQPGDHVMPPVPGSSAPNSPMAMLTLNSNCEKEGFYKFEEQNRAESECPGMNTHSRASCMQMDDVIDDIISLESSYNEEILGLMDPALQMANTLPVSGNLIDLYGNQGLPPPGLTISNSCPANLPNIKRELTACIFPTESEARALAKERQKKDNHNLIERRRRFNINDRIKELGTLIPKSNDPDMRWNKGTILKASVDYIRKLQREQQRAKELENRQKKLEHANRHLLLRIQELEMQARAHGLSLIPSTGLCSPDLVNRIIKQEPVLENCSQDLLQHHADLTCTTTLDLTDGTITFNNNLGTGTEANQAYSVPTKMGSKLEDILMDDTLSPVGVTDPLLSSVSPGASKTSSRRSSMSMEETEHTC

INS1 = experiment: INS-1E survival protection against cytokine death – cell-based, luminescence, retest, dose response (AID 449756); type: functional; conditions: Rattus norvegicus;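 also: cell death triggered by IL-1 beta plus TNF-alpha plus IFN-gamma mixture; protective hits raise ATP signal compared with cytokine alone wells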
[10] = target: T5, DNA repair protein RAD52 homolog (Homo sapiens, UniProt P43351); type: functional, biochemical
T5 sequence (P43351 whole entry): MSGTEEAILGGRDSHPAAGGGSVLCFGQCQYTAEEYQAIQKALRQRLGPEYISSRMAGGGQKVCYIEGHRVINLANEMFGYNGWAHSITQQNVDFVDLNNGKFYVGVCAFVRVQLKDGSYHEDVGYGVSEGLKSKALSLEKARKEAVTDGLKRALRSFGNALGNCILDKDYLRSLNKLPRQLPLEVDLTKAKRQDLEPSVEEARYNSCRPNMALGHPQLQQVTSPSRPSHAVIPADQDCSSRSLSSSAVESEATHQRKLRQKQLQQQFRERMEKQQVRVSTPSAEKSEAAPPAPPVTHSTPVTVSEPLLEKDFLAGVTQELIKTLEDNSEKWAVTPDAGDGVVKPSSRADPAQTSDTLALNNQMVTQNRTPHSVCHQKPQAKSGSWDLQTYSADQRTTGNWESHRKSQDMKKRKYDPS

[11] = target: Photoreceptor-specific nuclear receptor (Homo sapiens, UniProt Q9Y5X4); type: functional, cell-based;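 also: CHO-S cells with Gal4-NCOR and VP16-NR2E3 two-hybrid luciferase reporter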
Sequence of Photoreceptor-specific nuclear receptor (Q9Y5X4 whole entry, the tested form may be a part): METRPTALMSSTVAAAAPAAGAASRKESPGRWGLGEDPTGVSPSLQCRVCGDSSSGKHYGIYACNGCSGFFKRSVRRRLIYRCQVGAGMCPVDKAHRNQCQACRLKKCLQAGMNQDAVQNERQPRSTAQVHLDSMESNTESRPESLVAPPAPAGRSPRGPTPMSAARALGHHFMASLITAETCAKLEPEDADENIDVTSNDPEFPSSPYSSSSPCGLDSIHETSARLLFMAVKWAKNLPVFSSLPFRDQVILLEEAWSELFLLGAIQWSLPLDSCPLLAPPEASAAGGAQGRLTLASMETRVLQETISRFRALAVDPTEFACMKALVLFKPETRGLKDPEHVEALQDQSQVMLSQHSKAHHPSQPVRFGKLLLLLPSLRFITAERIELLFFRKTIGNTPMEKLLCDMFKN

- EC50 [2]: > 100 µM (inactive)
Structure (SMILES): Cc1ccc(O)c(NC(=O)C2CC(c3ccc(F)cc3)=NO2)c1 (stereo not given)

- EC50 [3]: 6.68 µM (active)
- IC50 [4]: 6.04 µM (active)
- EC50 [5]: 31.4 µM (active)
- IC50 [6]: 12.9 µM (active)
Structure (SMILES): Cc1ccc(C(C)(C)C)cc1S(=O)(=O)Nc1nc2ccccc2nc1Cl

- IC50 [11]: 4.47 µM (active)
Structure (SMILES): CCCCOc1ccc(CONS(=O)(=O)c2ccc(NC(C)=O)cc2)cc1Cl

- IC50 [4]: 3.31 µM (active)
- EC50 [5]: > 53 µM (inactive)
- IC50 [6]: > 20 µM (inactive)
Structure (SMILES): CCOc1ccc(/N=c2\scc(-c3ccc(OC)cc3)n2CCO)cc1

Further lines, the molecule ahead of its results:

Structure (SMILES): Cc1nnsc1C(=O)NC1CCCc2c1cnn2-c1ccc(F)cc1F (stereo not given)
- IC50 (Protein Wnt-3a): 3.91 µM (active)

Structure (SMILES): Cc1cccc(NC(=O)CSc2nc(O)c3c[nH]nc3n2)c1C
- IC50 [1]: 35.9 µM (inactive)

Structure (SMILES): C(#Cc1ccccc1)C[N+]1(CC#Cc2cccc3ccccc23)CCCC1
- EC50 [7]: > 150 µM (inconclusive)
- EC50 [8]: > 38 µM (not active)
- AC50 [9]: 6.21 µM (active)
- AC50 (INS1): 6.44 µM (active)
- IC50 (Protein Wnt-3a): 5.07 µM (active)
- AC50 [10]: 15.2 µM (active)

Structure (SMILES): CCCCCCCCn1c(=O)c(C(=O)OC)c(N)c2ccccc21
- AC50 (INS1): 5.55 µM (active)
- IC50 [11]: 6.4 µM (active)

Structure (SMILES): O=C(Nc1nc2ccsc2c(=O)s1)c1cccs1
- EC50 [2]: > 100 µM (inactive)
